Measurements taken from publication PMC6332026, “Synthesis and Pharmacochemistry of New Pleiotropic Pyrrolyl Derivatives” (Molecules, 2015).
One block for each compound: values may come before it.

Legend:
trypsin = molecular target: T1, trypsin (Bos taurus, UniProt P00760); test: Inhibition of the proteolytic activity of trypsin; format: biochemical; conditions: bovine albumin substrate, pH 7.6; read-out: TP IC50 (inhibition of trypsin)
T1 construct: purchased Sigma Chemical, Co. (St. Louis, MO, USA); host or cells: bovine pancreas
T1 sequence (P00760 24-246): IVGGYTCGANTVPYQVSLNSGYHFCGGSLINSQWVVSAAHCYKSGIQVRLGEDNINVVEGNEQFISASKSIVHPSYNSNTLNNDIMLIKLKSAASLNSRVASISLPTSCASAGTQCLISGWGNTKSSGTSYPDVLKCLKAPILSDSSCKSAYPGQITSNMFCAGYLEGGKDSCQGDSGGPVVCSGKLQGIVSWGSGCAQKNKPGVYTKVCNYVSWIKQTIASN
Text: Trypsin is an enzyme with an active role in inflammation. Thus, we studied the anti-proteolytic ability of the pyrrole derivatives, using salicylic acid as a reference compound. […] Comparing Compounds 2iv and 2v, the insertion of an electron-acceptor substituent (Cl) on the phenyl ring (substituent Ar^2) and the simultaneous increase of the volume of substituent Ar^2 (expressed as molar refractivity) led to an enhancement of the anti-proteolytic activity.
Carrageenan, type K, was commercially available. Cycloxygenase-2 (COX-2) and interleukin-6 (IL-6) EIA Kit, Item No. 583371 were purchased from Cayman. Trolox was obtained from Aldrich Chemical Co. (Milwaukee, WI, USA). All starting materials were obtained from commercial sources, and they were used without further purification.
The tested compounds (concentrations varying from 10 μΜ–100 μΜ in DMSO) were dissolved in a phosphate buffer (0.1 M K2HPO4–NaH2PO4·2H2O, pH = 7.6), and 0.2 mL of trypsin 0.075 mg/mL were added. The mixture was incubated at room temperature for 20 min, and then, 1 mL of bovine albumin (6 g/100 mL) was added. The mixture was incubated at 37 °C for 30 min. The reaction was stopped with the addition of 1 mL of trichloroacetic acid (5% w/w) Separation of the phases followed, with measurement of the supernatants at 280 nm at room temperature. IC50 values were determined.

[1] = tested on: carrageenan-induced rat paw edema; set-up: method as in PMID 7714750; conditions: dose 0.44 mmol/kg; cited from earlier work
soybean lipoxygenase = molecular target: T2, soybean lipoxygenase (Glycine max, UniProt P08170); test: Inhibition of soybean lipoxygenase (UV absorbance-based enzyme assay); format: biochemical; conditions: pH 9.00, read-out: LOX IC50
T2 construct: purchased Sigma Chemical, Co. (St. Louis, MO, USA)
T2 sequence (P08170 1-839): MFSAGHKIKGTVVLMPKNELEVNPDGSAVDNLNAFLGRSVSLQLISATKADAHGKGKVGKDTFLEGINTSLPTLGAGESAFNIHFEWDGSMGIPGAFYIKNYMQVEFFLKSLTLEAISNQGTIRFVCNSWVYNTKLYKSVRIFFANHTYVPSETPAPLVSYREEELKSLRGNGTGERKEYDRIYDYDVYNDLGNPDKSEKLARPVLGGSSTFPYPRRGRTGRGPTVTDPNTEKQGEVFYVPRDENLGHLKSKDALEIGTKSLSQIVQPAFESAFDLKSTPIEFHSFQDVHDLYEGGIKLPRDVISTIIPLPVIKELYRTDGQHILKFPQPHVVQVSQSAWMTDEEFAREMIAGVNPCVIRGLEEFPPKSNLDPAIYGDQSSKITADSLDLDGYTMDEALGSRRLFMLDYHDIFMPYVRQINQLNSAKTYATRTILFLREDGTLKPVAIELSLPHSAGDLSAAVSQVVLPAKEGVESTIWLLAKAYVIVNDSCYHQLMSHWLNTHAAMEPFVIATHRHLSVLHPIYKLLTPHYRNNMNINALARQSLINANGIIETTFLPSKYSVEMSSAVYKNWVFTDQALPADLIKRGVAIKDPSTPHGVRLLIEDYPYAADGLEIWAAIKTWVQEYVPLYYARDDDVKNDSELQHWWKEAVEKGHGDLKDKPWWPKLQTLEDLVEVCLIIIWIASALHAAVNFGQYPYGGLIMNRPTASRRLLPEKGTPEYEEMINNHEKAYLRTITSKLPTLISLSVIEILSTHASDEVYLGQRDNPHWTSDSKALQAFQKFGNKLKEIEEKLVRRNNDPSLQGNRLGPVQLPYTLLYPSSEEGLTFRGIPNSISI
Experimental: Lipoxygenase catalyzes the first two steps in the metabolism of arachidonic acid to leukotrienes. LTB4 generation is important in the pathogenesis of neutrophil-mediated inflammatory diseases with a marked relation to the severity of cardiovascular diseases, asthma and cancer. We evaluated the synthesized pyrroles for their ability to inhibit soybean LOX by the UV absorbance-based enzyme assay. […] The inhibition of COX-2, as a peroxidase, was determined by a colorimetric assay with the oxidation of N,N,N′,N′-tetramethyl-p-phenylenediamine (TMPD).
The tested compounds were dissolved in DMSO, and the final concentration was 100 μΜ. The compounds were incubated at room temperature with sodium linoleate as a substrate (0.1 mL) in a buffer solution of Tris:HCl (pH 9.00) and 0.2 mL of a solution of soybean lipoxygenase.

[2] = tested on: carrageenan-induced rat paw edema; test: Inhibition of rat paw edema induced by carrageenan; format: in vivo, Fischer 344 rats; conditions: Rattus norvegicus, ip; 0.01 mmol/kg body weight, intraperitoneally, 3.5 h; read-out: CPE % inhibition of rat paw edema induced by carrageenan
Experimental: The pyrrolyl derivatives, as well as their precursor chalcones were tested in vivo for the inhibition of rat paw edema induced by carrageenan. […] […]. For Compounds 2i, 2iii, 2iv and 2v, we determined their ED50 values. […]. The finding supports the primary idea of this design.
Edema was induced in the right hind paw of Fischer 344 rats (150–200 g). In the study, both males and females were included, with the exemption of pregnant females. The animals, which have been bred in our laboratory, were housed under standard conditions and received a diet of commercial food pellets and water ad libitum during maintenance. One hour before the onset of the experiment, food and water were removed. The tested compounds (dose 0.01 mmol/kg body weight) were diluted in water with a few drops of Tween 80, and they were administered intraperitoneally simultaneously with the intradermal injection of 0.1 mL 2% of carrageenan in water. The animals were euthanatized 3.5 h after the carrageenan administration. The difference between the weight of injected and uninjected paws was calculated for each animal and was compared to control animals, which were treated with water. Indomethacin was used as a reference compound in 0.01 mmol/kg. The results were expressed as the percent inhibition of the edema (CPE %).

[3] = Interaction with the stable free radical DPPH (reducing activity); conditions: DPPH 50 μM
Experimental: 2,2-Diphenyl-1-picrylhydrazyl (DPPH) is a lipophilic, free, stable radical, which absorbs at 517 nm (violet color). Upon reduction, decolorization is observed that is stoichiometric to the number of received electrons and is representative of the antioxidant ability of compounds. […] This interaction, which indicates their radical scavenging ability in an iron-free system, was measured at 100 and 1000 μM after 20 and 60 min, whereas the final concentration of DPPH was stable at 50 μΜ.
[…] The absorbance was measured at 517 nm after 20 and 60 min at room temperature.

IC50 (trypsin): 100 µM
Compound: O=C(O)c1ccccc1O [Salicylic acid, reference compound]

Compound: O=C(c1ccccc1)c1cc[nH]c1 [3-benzoylpyrrole]
inhibition of carrageenan-induced rat paw edema [1]: 43%

Compound: O=C(c1ccccc1)c1ccc[nH]1 [2-benzoylpyrrole]
inhibition of carrageenan-induced rat paw edema [1]: 34%

IC50 (soybean lipoxygenase): 190 µM
Compound: Cc1ccc(C(=O)c2ccc(CC(=O)O)n2C)cc1 [Tolmetin, reference compound]
inhibition in vivo at 10 µmol/kg [2]: 76% | RA % (interaction with DPPH) ([3]; 100 μM compound, 20 min): 3% | RA % (interaction with DPPH) ([3]; 100 μM compound, 60 min): 3% | RA % (interaction with DPPH) ([3]; 1000 μM compound, 20 min): 4% | RA % (interaction with DPPH) ([3]; 1000 μM compound, 60 min): 9%
